Laboratory results taken from ChEMBL document CHEMBL3414533, “Thiophene containing trisubstituted methanes [TRSMs] as identified lead against Mycobacterium tuberculosis” (Eur J Med Chem, 2015).
Converted amounts (≈) assume the structure as drawn. The source made the active and inactive calls. The calls are words filed in the database; no cut-off is given here.

Experiments:
[1] = tested on: Mycobacterium tuberculosis; assay: Antimycobacterial activity against Mycobacterium tuberculosis H37Rv incubated at 37 degC for 4 weeks; type: functional; details: 672 h
[2] = Cytotoxicity against African green monkey Vero C1008 cells assessed as reduction in cell viability after 24 hrs by MTS assay; type: cell-based; details: Chlorocebus sabaeus
[3] = Selectivity index, ratio of IC50 for African green monkey Vero C1008 cells to MIC for Mycobacterium tuberculosis H37Rv; type: toxicity, cell-based; details: read-out: Selectivity Index
[4] = tested on: Mycobacterium tuberculosis; assay: Antimycobacterial activity against Mycobacterium tuberculosis H37Rv infected in Swiss mouse assessed as mouse survival level at 100 mg/kg, po dosed daily for 28 days measured up to day 40; type: functional
[5] = tested on: Mycobacterium tuberculosis; assay: Antimycobacterial activity against Mycobacterium tuberculosis H37Rv infected in mouse bone-marrow derived macrophages assessed as reduction in intracellular colony forming units at 4 times antimycobacterial MIC measured during 3 hrs infection period; type: functional
[6] = tested on: Mycobacterium tuberculosis; assay: Antimycobacterial activity against Mycobacterium tuberculosis H37Rv infected in mouse bone-marrow derived macrophages assessed as reduction in intracellular colony forming units at 4 times antimycobacterial MIC measured during 3 hrs infection period relative to control; type: functional
[7] = tested on: Mycobacterium tuberculosis; assay: Antimycobacterial activity against Mycobacterium tuberculosis H37Rv infected in human blood monocyte derived macrophages assessed as reduction in intracellular colony forming units at 4 times antimycobacterial MIC measured during 3 hrs infection period relative to control; type: functional
[8] = tested on: Mycobacterium tuberculosis; assay: Bactericidal activity against Mycobacterium tuberculosis H37Rv infected in Swiss mouse assessed as microbial killing by measuring colony forming units dosed orally daily for 28 days (reference value: 4800 CFU); type: functional
[9] = tested on: Mycobacterium tuberculosis; assay: Antimycobacterial activity against Mycobacterium tuberculosis H37Rv infected in human blood monocyte derived macrophages assessed as reduction in intracellular colony forming units at 4 times antimycobacterial MIC measured during 3 hrs infection period; type: functional, organism-based
[10] = tested on: Mycobacterium tuberculosis; assay: Antimycobacterial activity against Mycobacterium tuberculosis H37Rv infected in Swiss mouse assessed as median survival time at 100 mg/kg, po dosed daily for 28 days measured up to day 40; type: functional
[11] = tested on: Mycobacterium tuberculosis; assay: Antimycobacterial activity against Mycobacterium tuberculosis H37Rv infected in Swiss mouse assessed as reduction in lung bacterial lesions at 100 mg/kg, po dosed daily for 28 days measured up to day 40 by Ziehl-Neelsen staining method; type: functional, organism-based; parameters: dose 100 mg/kg
[12] = tested on: Mycobacterium tuberculosis; assay: Antimycobacterial activity against Mycobacterium tuberculosis H37Rv infected in Swiss mouse assessed as lung bacterial colony forming units at 100 mg/kg, po dosed daily for 28 days measured up to day 40 (reference value: 31 10^7 CFU); type: functional
[13] = tested on: Mycobacterium tuberculosis; assay: Bactericidal activity against Mycobacterium tuberculosis H37Rv assessed as microbial killing at 1 times and 4 times MIC level measured on day 14; type: functional
[14] = tested on: Mycobacterium tuberculosis; assay: Bactericidal activity against Mycobacterium tuberculosis H37Rv infected in Swiss mouse assessed as microbial killing at 100 mg/kg, po dosed daily for 28 days; type: functional; details: 672 h
[15] = Elimination half life in rat by HPLC and LC-MS/MS method; type: ADME, organism-based; details: in vivo, read-out: beta t1/2 (converted)
[16] = Protein binding in rat plasma by HPLC and LC-MS/MS method; type: ADME, cell-free; details: read-out: PPB (converted)
[17] = Mean residence time in rat by HPLC and LC-MS/MS method; type: ADME, organism-based; details: in vivo
[18] = Bioavailability in rat by HPLC and LC-MS/MS method; type: ADME, organism-based; details: in vivo
[19] = tested on: Mycobacterium tuberculosis; assay: Antimycobacterial activity against Mycobacterium tuberculosis H37Rv infected in Swiss mouse assessed as reduction in lung bacterial colony forming units at 100 mg/kg, po dosed daily for 28 days measured up to day 40; type: functional
[20] = tested on: Mycobacterium tuberculosis; assay: Antimycobacterial activity against drug-sensitive Mycobacterium tuberculosis H37Rv by agar dilution method; type: functional
[21] = tested on: Mycobacterium tuberculosis; assay: Bactericidal activity against Mycobacterium tuberculosis H37Rv assessed as microbial killing by measuring colony forming units at 1 times and 4 times MIC level measured on day 14 (reference value: 1680 CFU); type: functional
[22] = tested on: Mycobacterium tuberculosis; assay: Bactericidal activity against Mycobacterium tuberculosis H37Rv infected in Swiss mouse assessed as microbial killing by measuring colony forming units at 100 mg/kg, po dosed daily for 28 days (reference value: 4800 CFU); type: functional
[23] = tested on: Mycobacterium tuberculosis; assay: Antimycobacterial activity against Mycobacterium tuberculosis H37Rv infected in Swiss mouse assessed as lung bacterial colony forming units at 150 mg/kg, po dosed daily for 28 days measured up to day 40 (reference value: 31 10^7 CFU); type: functional
[24] = tested on: Mycobacterium tuberculosis; assay: Antimycobacterial activity against Mycobacterium tuberculosis H37Rv infected in Swiss mouse assessed as lung bacterial colony forming units at 10 mg/kg, po dosed daily for 28 days measured up to day 40 (reference value: 31 10^7 CFU); type: functional

COc1ccccc1C(c1ccc(OCCN(C)C)cc1)c1cccs1 (stereo not drawn)
MIC [1]: 9.19 µg/mL (≈ 25 µM)

CCN(CC)CCOc1ccc(C(c2cccs2)c2ccccc2SC)cc1 (stereo not drawn)
MIC [1]: 25 µg/mL (≈ 60.7 µM)

Clc1cccc(C(c2ccc(OCCN3CCCC3)cc2)c2cccs2)c1 (stereo not drawn)
MIC [1]: 2.49 µg/mL (≈ 6.26 µM)
IC50 [2]: 8.6 µg/mL (≈ 21.6 µM)
selectivity ratio [3]: < 10

Clc1ccc(C(c2ccc(OCCN3CCCCC3)cc2)c2cccs2)cc1 (stereo not drawn)
Activity [4]: inactive
MIC [1]: 0.78 µg/mL (≈ 1.89 µM)
IC50 [2]: 100 µg/mL (≈ 243 µM)
selectivity ratio [3]: > 10
inhibition (percent reduction in intracellular colony forming units) [5]: >90%

CC(C)N(CCOc1ccc(C(c2ccc(Cl)cc2)c2cccs2)cc1)C(C)C (stereo not drawn)
inhibition (INH) [6]: 94%
inhibition (INH) [7]: 88%
Activity [4]: Active
MIC [1]: 1.56 µg/mL (≈ 3.64 µM)
IC50 [2]: 100 µg/mL (≈ 234 µM)
selectivity ratio [3]: > 10
inhibition (percent reduction in intracellular colony forming units) [5]: >90%

COc1ccccc1C(c1ccc(OCCN2CCCC2)cc1)c1cccs1 (stereo not drawn)
MIC [1]: 25 µg/mL (≈ 63.5 µM)

CCN(CC)CCOc1ccc(C(c2cccc(Cl)c2)c2cccs2)cc1 (stereo not drawn)
MIC [1]: 1.25 µg/mL (≈ 3.13 µM)
IC50 [2]: 10.1 µg/mL (≈ 25.3 µM)
selectivity ratio [3]: < 10

COc1ccccc1C(c1ccc(OCCN2CCOCC2)cc1)c1cccs1 (stereo not drawn)
MIC [1]: 10.2 µg/mL (≈ 25 µM)

COc1ccccc1C(c1ccc(OCCN2CCCCC2)cc1)c1cccs1 (stereo not drawn)
MIC [1]: 1.28 µg/mL (≈ 3.14 µM)
IC50 [2]: 9.2 µg/mL (≈ 22.6 µM)
selectivity ratio [3]: < 10

Clc1cccc(C(c2ccc(OCCN3CCOCC3)cc2)c2cccs2)c1 (stereo not drawn)
MIC [1]: 5.18 µg/mL (≈ 12.5 µM)
IC50 [2]: 23.4 µg/mL (≈ 56.5 µM)
selectivity ratio [3]: < 10

CO[C@H]1/C=C/O[C@@]2(C)Oc3c(C)c(O)c4c(O)c(c(/C=N/N5CCN(C)CC5)c(O)c4c3C2=O)NC(=O)/C(C)=C\C=C\[C@H](C)[C@H](O)[C@@H](C)[C@@H](O)[C@@H](C)[C@H](OC(C)=O)[C@@H]1C [RIFAMPIN]
CFU [8]: 2000
inhibition [5]: Active

NNC(=O)c1ccncc1 [ISONIAZID]
inhibition [9]: Active
inhibition (INH) [6]: 93%
inhibition (INH) [7]: 84%
inhibition [5]: Active

CN(C)CCOc1ccc(C(c2cccs2)c2ccccc2F)cc1 (stereo not drawn)
MIC [1]: 17.8 µg/mL (≈ 50.1 µM)

Fc1ccccc1C(c1ccc(OCCN2CCCCC2)cc1)c1cccs1 (stereo not drawn)
MIC [1]: 1.24 µg/mL (≈ 3.13 µM)
IC50 [2]: 3.9 µg/mL (≈ 9.86 µM)
selectivity ratio [3]: < 10

c1ccc(C(c2ccc(OCCN3CCCCCC3)cc2)c2cccs2)cc1 (stereo not drawn)
MIC [1]: 3.1 µg/mL (≈ 7.92 µM)
IC50 [2]: 13 µg/mL (≈ 33.2 µM)
selectivity ratio [3]: < 10

CSc1ccccc1C(c1ccc(OCCN(C)C)cc1)c1cccs1 (stereo not drawn)
MIC [1]: 12.5 µg/mL (≈ 32.6 µM)

CCN(CC)CCOc1ccc(C(c2cccs2)c2ccccc2OC)cc1 (stereo not drawn)
MIC [1]: 25 µg/mL (≈ 63.2 µM)

COc1ccc(C(c2ccc(OCCN(C(C)C)C(C)C)cc2)c2cccs2)cc1 (stereo not drawn)
inhibition [9]: Active
inhibition (INH) [6]: 96%
inhibition (INH) [7]: 81%
survival at 100 mg/kg [4]: 42%
MST [10]: 7 days
Activity [11]: Active
Activity [12]: 2.2 ×10⁷ CFU
inhibition (INH) [13]: 100%
inhibition in vivo at 100 mg/kg [14]: 75%
half-life [15]: 9 h
fraction unbound [16]: 0.4
MRT [17]: 18 h
bioavailability [18]: 45%
fold change (FC) [19]: 15
MIC [20]: 3.12 µM (≈ 1.32 µg/mL)
CFU [21]: 0
CFU [22]: 1200
MIC [1]: 1.33 µg/mL (≈ 3.14 µM)
IC50 [2]: 100 µg/mL (≈ 236 µM)
selectivity ratio [3]: > 10
inhibition (percent reduction in intracellular colony forming units) [5]: >90%

c1ccc(C(c2ccc(OCCN3CCOCC3)cc2)c2cccs2)cc1 (stereo not drawn)
MIC [1]: 25 µg/mL (≈ 65.8 µM)

NC(=O)c1cnccn1 [PYRAZINAMIDE]
Activity [23]: 1.9 ×10⁷ CFU
inhibition [5]: Active

CC[C@@H](CO)NCCN[C@@H](CC)CO [ETHAMBUTOL]
Activity [24]: 1.27 ×10⁷ CFU

Fc1cccc(C(c2ccc(OCCN3CCCCC3)cc2)c2cccs2)c1 (stereo not drawn)
MIC [1]: 19.8 µg/mL (≈ 50.1 µM)

CC(C)N(CCOc1ccc(C(c2cccs2)c2ccccc2F)cc1)C(C)C (stereo not drawn)
MIC [1]: 10.3 µg/mL (≈ 25 µM)

CN(C)CCOc1ccc(C(c2cccc(F)c2)c2cccs2)cc1 (stereo not drawn)
MIC [1]: 17.8 µg/mL (≈ 50.1 µM)

CN(C)CCOc1ccc(C(c2cccc(Cl)c2)c2cccs2)cc1 (stereo not drawn)
MIC [1]: 4.65 µg/mL (≈ 12.5 µM)
IC50 [2]: 10.8 µg/mL (≈ 29 µM)
selectivity ratio [3]: < 10

Fc1ccccc1C(c1ccc(OCCN2CCOCC2)cc1)c1cccs1 (stereo not drawn)
MIC [1]: 19.9 µg/mL (≈ 50.1 µM)

c1ccc(C(c2ccc(OCCN3CCCCC3)cc2)c2cccs2)cc1 (stereo not drawn)
MIC [1]: 6.23 µg/mL (≈ 16.5 µM)

CCN(CC)CCOc1ccc(C(c2cccs2)c2ccccc2F)cc1 (stereo not drawn)
MIC [1]: 4.8 µg/mL (≈ 12.5 µM)

COc1ccccc1C(c1ccc(OCCN2CCCCCC2)cc1)c1cccs1 (stereo not drawn)
MIC [1]: 2.64 µg/mL (≈ 6.26 µM)
IC50 [2]: 12.7 µg/mL (≈ 30.1 µM)
selectivity ratio [3]: < 10

CCN(CC)CCOc1ccc(C(c2ccccc2)c2cccs2)cc1 (stereo not drawn)
MIC [1]: 12.5 µg/mL (≈ 34.1 µM)

Clc1cccc(C(c2ccc(OCCN3CCCCC3)cc2)c2cccs2)c1 (stereo not drawn)
MIC [1]: 1.29 µg/mL (≈ 3.13 µM)
IC50 [2]: 8.7 µg/mL (≈ 21.1 µM)
selectivity ratio [3]: < 10

CSc1ccc(C(c2ccc(OCCN(C(C)C)C(C)C)cc2)c2cccs2)cc1 (stereo not drawn)
inhibition [9]: Active
Activity [4]: Active
MIC [1]: 1.57 µg/mL (≈ 3.57 µM)
IC50 [2]: 100 µg/mL (≈ 227 µM)
selectivity ratio [3]: > 10
inhibition (percent reduction in intracellular colony forming units) [5]: >90%

Fc1ccccc1C(c1ccc(OCCN2CCCC2)cc1)c1cccs1 (stereo not drawn)
MIC [1]: 19.1 µg/mL (≈ 50.1 µM)

COc1ccccc1C(c1ccc(OCCN(C(C)C)C(C)C)cc1)c1cccs1 (stereo not drawn)
MIC [1]: 25 µg/mL (≈ 59 µM)

CCN(CC)CCOc1ccc(C(c2cccc(F)c2)c2cccs2)cc1 (stereo not drawn)
MIC [1]: 2.4 µg/mL (≈ 6.26 µM)
IC50 [2]: 5.8 µg/mL (≈ 15.1 µM)
selectivity ratio [3]: < 10

CC(C)N(CCOc1ccc(C(c2cccc(Cl)c2)c2cccs2)cc1)C(C)C (stereo not drawn)
MIC [1]: 1.34 µg/mL (≈ 3.13 µM)
IC50 [2]: 22 µg/mL (≈ 51.4 µM)
selectivity ratio [3]: > 10
